Structures can show the parent of a compound that is named as a salt.
These molecules were tested on ATGL-KO iPSCs (assay: High throughput iPSC chemical screening, Oil Red O (ORO) lipid accumulation). Settings: not given.
Format: cell-based, mouse
For `CN[C@H](CC(C)C)C(=O)N[C@H]1C(=O)N[C@@H](CC(N)=O)C(=O)N[C@H]2C(=O)N[C@H]3C(=O)N[C@H](C(=O)N[C@H](C(=O)O)c4cc(O)cc(O)c4-c4cc3ccc4O)[C@H](O)c3ccc(c(Cl)c3)Oc3cc2cc(c3O[C@@H]2O[C@H](CO)[C@@H](O)[C@H](O)[C@H]2O[C@H]2C[C@](C)(N)[C@H](O)[C@H](C)O2)Oc2ccc(cc2Cl)[C@H]1O` [Vancomycin hydrochloride], the Z-score was −0.5906.

Same assay, conditions: glycolytic switch compounds
For `O=C1C=CC(=O)c2c1ccc1c2ccc2ccccc21` [Chrysene-1,4-quinone], the “Rank in normalized ORO score from screen” value was 133.

Same assay, conditions: normalized ORO level vs DMSO-treated cells; compound present during 7 days differentiation, 96-well; negative = decrease in lipid accumulation
In the case of `Cc1ccccc1OCC(O)CO` (stereo not shown) [Mephenesin], the Z-score is reported as −0.9401. Work on `NC(=O)N/N=C/c1ccc([N+](=O)[O-])o1` [Nitrofural] yielded a Z-score of −0.866. With `CC1(C)[C@@H](OC(=O)CCC(=O)O)CC[C@]2(C)[C@H]3C(=O)C=C4[C@@H]5C[C@@](C)(C(=O)O)CC[C@]5(C)CC[C@@]4(C)[C@]3(C)CC[C@@H]12` [Carbenoxolone disodium salt] the Z-score was −1.2656. `C=C[C@H]1C[N@@]2CC[C@H]1C[C@@H]2[C@@H](O)c1ccnc2ccccc12` [Cinchonine] showed a Z-score of −1.1697. Molecule `C#CCN(C)CCCOc1ccc(Cl)cc1Cl` [Clorgyline hydrochloride] has a Z-score of −0.8658. For `Oc1ccc(C=Cc2cc(O)cc(O)c2)cc1` [Resveratrol], the Z-score was 11.669. In the case of `CC(C)(Oc1ccc(Cl)cc1)C(=O)O` [Clofibric acid], the Z-score is reported as 2.297. `CC[C@@]1(O)C(=O)OCc2c1cc1n(c2=O)Cc2cc3ccccc3nc2-1` [Camptothecine (S,+)] gave a Z-score of 21.8871. For `CN(C)CCOC(=O)COc1ccc(Cl)cc1` [Meclofenoxate hydrochloride], the Z-score was 0.4945. In the case of `C#C[C@]1(O)CC[C@H]2[C@@H]3CCC4=C(CCC(=O)C4)[C@H]3CC[C@@]21C` [Norethynodrel], the Z-score is reported as −0.7872. `[H]/N=C(/N)NS(=O)(=O)c1ccc(N)cc1` [Sulfaguanidine] showed a Z-score of 1.05. In the case of `O=c1cc(-c2ccccc2)oc2cc(O)cc(O)c12` [Chrysin], the Z-score is reported as −0.7142. `CCCNC(C)C(=O)Nc1c(C)csc1C(=O)OC` (stereo not shown) [Articaine hydrochloride] gave a Z-score of 0.836. `O=C1C(CC[S+]([O-])c2ccccc2)C(=O)N(c2ccccc2)N1c1ccccc1` (stereo not shown) [Sulfinpyrazone] gave a Z-score of −1.4016. `C1CCc2nnnn2CC1` [Pentylenetetrazole] was tested, and the Z-score was 0.6653. `NC(=O)c1cnccn1` [Pyrazinamide] was tested, and the Z-score was −1.0312. Work on `CCC1(CC)C(=O)C=CNC1=O` [Pyrithyldione] yielded a Z-score of 0.5042. Cyanocobalamin showed a Z-score of −1.3236. `Cc1c(Cl)cccc1Nc1ccccc1C(=O)O` [Tolfenamic acid] showed a Z-score of −0.8256. `CCNCC(O)c1cccc(O)c1` (stereo not shown) [Etilefrine hydrochloride] was tested, and the Z-score was 0.1398. `CN1C(=O)CC(c2ccccc2)C1=O` (stereo not shown) [Phensuximide] showed a Z-score of 0.02844. `COc1cc(NS(=O)(=O)c2ccc(N)cc2)ncn1` [Sulfamonomethoxine] was tested, and the Z-score was −1.3171. For `NC[C@@H]1O[C@H](O[C@H]2[C@@H](O)[C@H](O[C@@H]3[C@@H](O)[C@H](N)C[C@H](N)[C@H]3O[C@H]3O[C@H](CO)[C@@H](O)[C@H](O)[C@H]3N)O[C@@H]2CO)[C@H](N)[C@@H](O)[C@@H]1O` [Paromomycin sulfate], the Z-score was −0.0138. For `COc1ccc(OC)c(C(O)CNC(=O)CN)c1` (stereo not shown) [Midodrine hydrochloride], the Z-score was −0.5001. `Cc1ncc([N+](=O)[O-])n1CC(O)CCl` (stereo not shown) [Ornidazole] gave a Z-score of 0.7824. Molecule `CC(C)(CO)[C@@H](O)C(=O)NCCC(=O)O` [Pantothenic acid calcium salt monohydrate] has a Z-score of −1.5008. `C=CCOC(Cn1ccnc1)c1ccc(Cl)cc1Cl` (stereo not shown) [Enilconazole] was tested, and the Z-score was −0.0014. `Cl.O=c1[nH]oc2c1CCNC2` [THIP Hydrochloride] showed a Z-score of −1.3776. `Nc1ccc(S(=O)(=O)Nc2ccnn2-c2ccccc2)cc1` [Sulfaphenazole] was tested, and the Z-score was −0.2854. `CCN1C[C@]2(C)CC[C@H](OC)[C@@]34C1[C@]1(OCO[C@@]15C[C@H](OC)[C@H]1C[C@]3(O)[C@@H]5[C@H]1OC)[C@@H](OC(C)=O)[C@H]24` [Deltaline] was tested, and the Z-score was −1.2966. In the case of `CCOC(=O)Oc1c(OC)cc(C(=O)O[C@@H]2C[C@@H]3CN4CCc5c([nH]c6cc(OC)ccc56)[C@H]4C[C@@H]3[C@H](C(=O)OC)[C@H]2OC)cc1OC` [Syrosingopine], the Z-score is reported as 0.3519. Molecule `NC(Cn1ccc(=O)c(O)c1)C(=O)O` (stereo not shown) [Mimosine] has a Z-score of 0.9075. Molecule `CCCSc1ccc2nc(NC(=O)OC)[nH]c2c1` [Albendazole] has a Z-score of 41.6509. In the case of `CN(C)[C@@H]1C(O)=C(C(=O)NCNCCCC[C@H](N)C(=O)O)C(=O)[C@@]2(O)C(O)=C3C(=O)c4c(O)cccc4[C@@](C)(O)[C@H]3C[C@@H]12` [Lymecycline], the Z-score is reported as −1.3365. `CC(=O)O[C@]1(C(C)=O)CC[C@H]2[C@@H]3C=C(C)C4=CC(=O)CC[C@@H]4[C@H]3CC[C@@]21C` [Nomegestrol acetate] gave a Z-score of 1.552. `CC[C@@H](CO)NC(=O)[C@@H]1C=C2c3cccc4[nH]cc(c34)C[C@H]2N(C)C1` [Methylergometrine maleate] was tested, and the Z-score was 0.02492. Work on `O=C1C=CC(=O)c2c1ccc1c2ccc2ccccc21` [Chrysene-1,4-quinone] yielded a Z-score of −1.1808. `CN(C)CCCN1c2ccccc2Sc2ccccc21` [Promazine hydrochloride] was tested, and the Z-score was 0.01386. `CC[C@]12CCCN3CCc4c(n(c5ccccc45)[C@@](O)(C(=O)OC)C1)[C@@H]32` [Vincamine] showed a Z-score of −0.4826. With `COc1ccc2cc([C@H](C)C(=O)O)ccc2c1` [Naproxen] the Z-score was −0.3678. For `CCN(CC)CCNC(=O)c1cc(Br)c(N)cc1OC` [Bromopride], the Z-score was 0.9486. `Cc1cc(C(C)(C)C)cc(C)c1CC1=NCCN1` [Xylometazoline hydrochloride] showed a Z-score of 0.7686. Molecule Butirosin disulfate salt has a Z-score of 0.2121. In the case of `Cc1c(N)c(=O)n(-c2ccccc2)n1C` [Ampyrone], the Z-score is reported as −0.2996. `CNC(=C[N+](=O)[O-])NCCSCc1ccc(CN(C)C)o1` [Ranitidine hydrochloride] gave a Z-score of −0.5642. Molecule `C[N+](C)(C)CCCCCC[N+](C)(C)C.O.O.[Br-].[Br-]` [Hexamethonium dibromide dihydrate] has a Z-score of −0.5997. `C=CC[N@@+]12CC[C@@]34c5ccccc5N5/C=C6/[C@H]7C[C@H]8[C@@]9(CC[N@@+]8(CC=C)C/C7=C/CO)c7ccccc7N(/C=C(/[C@@H](C[C@@H]31)/C(=C\CO)C2)[C@H]54)[C@@H]69.[Cl-].[Cl-]` [Alcuronium chloride] showed a Z-score of 0.354. For `CC1(C)OC(=O)NC1=O` [Dimethadione], the Z-score was −0.9493. Work on `CS(=N)(=O)CC[C@H](N)C(=O)O` (stereo partly shown) [Methionine sulfoximine (L)] yielded a Z-score of −0.2829. Retrorsine was tested, and the Z-score was 0.08676. Molecule `CCC(=O)O[C@@](Cc1ccccc1)(c1ccccc1)[C@@H](C)CN(C)C` [Levopropoxyphene napsylate] has a Z-score of −1.0896. Work on `CCCCN(CCCC)CCC(O)c1cc2c(Cl)cc(Cl)cc2c2cc(C(F)(F)F)ccc12` (stereo not shown) [Halofantrine hydrochloride] yielded a Z-score of 1.459. Work on `Cc1ccc(C(=O)c2ccc(CC(=O)O)n2C)cc1` [Tolmetin sodium salt dihydrate] yielded a Z-score of −1.0425. With `Cc1c(N(C)C)c(=O)n(-c2ccccc2)n1C` [Amidopyrine] the Z-score was 0.347. In the case of `CC(=O)O[C@]1(C(C)=O)CC[C@H]2[C@@H]3C=C(Cl)C4=CC(=O)[C@@H]5C[C@@H]5[C@]4(C)[C@H]3CC[C@@]21C` [Cyproterone acetate], the Z-score is reported as −1.2528. Work on `CC(C)NCC(O)COc1ccc(CCOCC2CC2)cc1` (stereo not shown) [Betaxolol hydrochloride] yielded a Z-score of 1.393. In the case of `Cc1c(O)c(=O)n(-c2ccccc2)n1C` [Antipyrine, 4-hydroxy], the Z-score is reported as 0.52. `Fc1ccc([C@@H]2CCNC[C@H]2COc2ccc3c(c2)OCO3)cc1` [Paroxetine Hydrochloride] showed a Z-score of −0.9182. `CCCC1C(=O)N2C(N(C)C)=Nc3ccc(C)cc3N2C1=O` (stereo not shown) [Azapropazone] gave a Z-score of −0.6493. In the case of `CCCCC(CC)CN1CN(CC(CC)CCCC)CC(C)(N)C1` (stereo not shown) [Hexetidine], the Z-score is reported as 1.396. For `C[C@]12C[C@H](O)[C@H]3[C@@H](CCC4=CC(=O)CC[C@@]43C)[C@@H]1CC[C@@H]2C(=O)CO` [Corticosterone], the Z-score was −1.2709. With `CCN[C@H]1CN(CCCOC)S(=O)(=O)c2sc(S(N)(=O)=O)cc21` [Brinzolamide] the Z-score was −0.419. `COc1c2c(nc3ccccc13)OC(C(C)(O)CO)C2` (stereo not shown) [Dubinidine] gave a Z-score of 0.2385. `COP(=O)(OC)C(O)C(Cl)(Cl)Cl` (stereo not shown) [Trichlorfon] showed a Z-score of 0.2655. In the case of `COc1ccc(C[C@H]2NC[C@H](O)[C@H]2OC(C)=O)cc1` [Anisomycin], the Z-score is reported as 30.3787. With `N[C@@H]1CONC1=O` [D-cycloserine] the Z-score was −1.0332. Work on `CC(=O)NC1[C@@H](O)OC(CO)[C@@H](O)[C@H]1O[C@H](C)C(=O)O` (stereo in doubt) [Muramic acid, N-acetyl] yielded a Z-score of 1.128. With `CCCCCCCCCCCCCCCC[N+](C)(C)CCN(Cc1ccc(OC)cc1)c1ncccn1` [Thonzonium bromide] the Z-score was 2.814. Work on `N=C(N)N1CCc2ccccc2C1` [Debrisoquin sulfate] yielded a Z-score of 0.2228. `[H]/N=C(/N)N[C@H]1[C@H](O)[C@@H](O)[C@H](O[C@@H]2O[C@@H](C)[C@](O)(C=O)[C@H]2O[C@@H]2O[C@@H](CO)[C@H](O)[C@@H](O)[C@@H]2NC)[C@@H](N/C(N)=N\[H])[C@@H]1O` [Streptomycin sulfate] showed a Z-score of 1.417. Molecule `O=C(Cn1ccnc1[N+](=O)[O-])NCCO` [Etanidazole] has a Z-score of 0.6681. In the case of `CN1CCOC(c2ccccc2)c2ccccc2C1` (stereo not shown) [Nefopam hydrochloride], the Z-score is reported as −0.0308. Molecule `C[C@]12CC[C@H]3[C@@H](CCC4=CC(=O)CC[C@@]43C)[C@@H]1CC[C@@H]2C(=O)CO` [Deoxycorticosterone] has a Z-score of 0.6523. Work on `CCc1cccc2c3c([nH]c12)C(CC)(CC(=O)O)OCC3` (stereo not shown) [Etodolac] yielded a Z-score of 1.6287. `CCN(CC)C(=O)c1ccc(O)c(OC)c1` [Ethamivan] showed a Z-score of −0.565. Molecule `CCCCC[C@H](O)/C=C/[C@H]1[C@H](O)CC(=O)[C@@H]1CCCCCCC(=O)O` [Alprostadil] has a Z-score of −0.9154. Molecule `CN1C(C(=O)Nc2ccccn2)=C(O)c2sccc2S1(=O)=O` [Tenoxicam] has a Z-score of −0.5016.

Source: patent US9393221B2, “Methods and compounds for reducing intracellular lipid storage” (THE GENERAL HOSPITAL CORPORATION, priority 2011, dated 2016)
Wherever Z-score is given: test concentration or dose not given here.
